Reference: patent US20080096799A1, “COMPOUNDS FOR AND METHODS OF TREATING INSULIN RESISTANCE AND INFLAMMATION” (FORBES MEDI-TECH (RESEARCH), INC., priority 2006, published 2008)

How the values were obtained:
SPT [1] = biological target: T1, SPT (Homo sapiens, UniProt O15269+O15270); assay: Serine palmitoyltransferase activity, Assay C ([3H]serine incorporation into lipids, cell homogenates); type: biochemical; conditions: [3H]serine radioactivity incorporated into lipids, 37° C. 20 min, at the doses indicated
T1 construct: endogenous in cells; host or cells: unnamed cultured cells (Assay B, which Assay C modifies, offers 'CHO cells or a human cell line')
T1 sequence (O15269 1-473): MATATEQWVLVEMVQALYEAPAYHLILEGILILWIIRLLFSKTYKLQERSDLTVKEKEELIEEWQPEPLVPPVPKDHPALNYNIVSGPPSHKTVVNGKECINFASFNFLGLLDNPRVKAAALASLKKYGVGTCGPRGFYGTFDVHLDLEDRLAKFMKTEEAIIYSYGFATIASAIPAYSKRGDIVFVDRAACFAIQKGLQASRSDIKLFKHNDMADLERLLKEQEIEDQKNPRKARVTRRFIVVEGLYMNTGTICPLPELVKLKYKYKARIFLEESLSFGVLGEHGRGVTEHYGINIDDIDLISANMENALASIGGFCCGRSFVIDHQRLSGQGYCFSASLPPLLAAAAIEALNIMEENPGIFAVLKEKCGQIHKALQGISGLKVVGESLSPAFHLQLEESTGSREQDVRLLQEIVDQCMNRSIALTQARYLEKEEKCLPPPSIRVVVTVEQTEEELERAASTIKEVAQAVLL
T1 sequence (O15270 1-562): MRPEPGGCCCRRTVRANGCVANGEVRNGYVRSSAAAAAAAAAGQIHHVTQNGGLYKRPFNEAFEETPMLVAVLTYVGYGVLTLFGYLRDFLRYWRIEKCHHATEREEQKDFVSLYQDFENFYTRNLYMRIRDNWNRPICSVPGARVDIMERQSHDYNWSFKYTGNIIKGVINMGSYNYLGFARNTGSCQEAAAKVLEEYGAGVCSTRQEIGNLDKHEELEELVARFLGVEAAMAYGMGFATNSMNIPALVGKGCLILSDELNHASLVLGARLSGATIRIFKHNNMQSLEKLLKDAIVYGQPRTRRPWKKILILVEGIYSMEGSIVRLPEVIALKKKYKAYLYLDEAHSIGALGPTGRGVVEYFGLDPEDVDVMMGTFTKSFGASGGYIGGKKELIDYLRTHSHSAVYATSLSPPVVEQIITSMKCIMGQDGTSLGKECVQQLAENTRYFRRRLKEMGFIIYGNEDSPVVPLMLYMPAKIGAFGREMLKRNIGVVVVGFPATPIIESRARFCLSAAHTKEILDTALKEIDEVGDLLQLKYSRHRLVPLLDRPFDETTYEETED
T1 sequence (Q969W0 1-71 partner): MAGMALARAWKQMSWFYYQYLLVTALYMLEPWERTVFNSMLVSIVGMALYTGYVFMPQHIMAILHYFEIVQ
Procedure: An alternative assay for evaluating inhibition of SPT, the enzyme present in commonly cultured cells, is performed with CHO cells or a human cell line. Cells are washed three times with ice-cold phosphate-buffered saline (PBS). A total of 0.5 mL of lysis buffer [50 mM Hepes (pH 8.0) containing 5 mM ethylenediaminetetraacetic acid (EDTA) and 5 mM dithiothreitol (DTT)] is added to each dish. The cells are scraped using a rubber policeman, and are then transferred to a test tube on ice. The cell suspension is sonicated three times for 5 s at 1-2 min intervals on ice. Protein concentrations in cell homogenates are measured using a Bradford protein assay kit (Bio-Rad). […] The radioactivity is measured with a LS6000TA liquid scintillation counter (Beckman). Nonspecific conversion of [^3H] serine to chloroform-soluble species is determined by performing the assay in the absence of palmitoyl CoA. […]
An alternative assay using a non-chlorinated solvent modification of the Blye and Dyer lipid extraction method reported in Smedes (Smedes, F. (1999) Analyst 124, 1711-18) is employed to evaluate exemplary compounds. […] An accurately measured portion of the organic layer (4.0 ml) is added to a scintillation vial with 1 ml of water. […] The amount of [^3H] serine radioactivity incorporated into lipids is quantified in a scintillation counter. […]

Rat pancreatic islets = assay: Protection of islets by an SPT inhibitor (fatty acid medium, propidium iodide flow cytometry); type: cell-based; conditions: 3 days
Procedure: Islet protection by an exemplary compound is evaluated in an assay according to Eitel, K, et al. Biochem. Biophys. Res. Commun. 299: 853-6 (2002), and results obtained in this assay are reported below in Table 4. Rat pancreatic islets are cultured with control medium (RPMI 1640 supplemented with 10% fetal bovine serum, antibiotics and made […]) or in medium supplemented with 1 millimolar sodium palmitate (Fatty Acid Medium) during a period of 3 days. The culture medium is changed after 2 days to an identical composition culture medium with fresh inhibitor in the appropriate wells. Cells are stained with propidium iodide (PI), washed and propidium staining of cells (as a measure of cellular DNA content) is assessed by flow cytometry. The percentage of cells having less than the normal amount of PI staining is considered to be apoptotic cells (Eitel, K, et al. (2002)).

SPT [2] = conditions: literature report, immunosuppressive assay for FTY720-like activity; cited from earlier work
[3] = test system: diabetic Zucker fatty rat model; conditions: inhibition of SPT; cited from earlier work

SMILES | inhibition of SPT (SPT [1]) | activity against SPT (SPT [2]) | also measured
CCCCCCCOc1ccc(CCC(O)C(O)C(N)(CC(N)=O)C(=O)O)cc1 (stereo not shown) [Compound 12] | moderate activity |  | protection of cells from the fatty acid treatment (apoptotic cells by PI staining) (Rat pancreatic islets; 1 millimolar sodium palmitate): fully protect; benefit in comparison to treatment with the control medium (Rat pancreatic islets; PI staining): imparts a benefit
CCCCCCCCc1ccc(CCC(N)(CO)CO)cc1 [FTY720] |  | do not inhibit SPT | 
CCCCCCC(=O)CCCCCC/C=C/C[C@@H](O)[C@H](O)[C@@](N)(CO)C(=O)O [ISP-1, myriocin] | potent but non-selective inhibition |  | 
CCCCCCCCc1ccc(CCC(N)(CO)C(=O)O)cc1 (stereo not shown) [compound 2] |  | did not exhibit activity | 
N[C@@H]1CON=C1O [cycloserine] |  |  | beta cell protective effect [3]: ≈ 50%
